The record followed here is patent US11202792B2, “CD99 inhibitors and their uses” (GEORGETOWN UNIVERSITY, priority 2016, dated 2021).

For test [1], the system named is TC-71, 6647 and RDES ES cells. Nature of the test: Cell cycle and cell death analysis by flow cytometry, ES cells. The test is classed as cell-based, human. To be noted: 48 h; for hypodiploid sub-G1 peak: only in ES cells compared with U-2 OS. Here is the method:
For the evaluation of cell cycle, cell cultures were incubated with 10 μmol/L bromodeoxyuridine (BrdU) (Sigma-Aldrich) for 1 h in a CO2 atmosphere at 37° C. Harvested cells were fixed in ice-cold 70% ethanol for 30 min. After DNA denaturation with 2 N HCl for 30 min at room temperature, cells were washed with 0.1 M Na2B4O7, pH 8.5 and processed for indirect immunofluorescence staining, using α-BrdU (BD Biosciences (San Jose, Calif.)) diluted 1:4 as a primary MAb and α-mouse FITC (1:100—Thermo Scientific (Waltham, Mass.)) as a secondary antibody. After treatment with 0.5 mg/ml RNase and staining with 20 μg/ml propidium iodide, cells were and analyzed by flow cytometry (FACSCalibur; Becton Dickinson (Franklin Lakes, N.J.)) for cell cycle evaluation and for assessing cell death by DNA content analysis.

The next test has as its system SKES-1 ES cells. Nature of the test: Cell viability IC50, SKES-1. It is filed as cell-based. The following applies: Homo sapiens, SK-ES1. The method, then: (§1) The plate was installed into the RTCA system, and the electrical impedance (represented as cell index) was measured every 10 min.
(§2) To investigate the relationship between the level of CD99 expression and drug sensitivity, the endogenous expression of CD99 was determined in a panel of 9 ES and 13 non-ES cell lines. The recombinant purified CD99-ECD protein was used to generate standard curves for immunoquantification of CD99 expression by immunoblotting (FIGS. 6B and 6C).

In test [2] the test system is ROCK2 expression in RDES, 6647, IOR/CAR and TC-71 ES cells. Nature of the test: ROCK2 expression by immunoblot in ES cells. It is filed as cell-based, human. The following applies: 24 h, vs DMSO-treated control cells. Here is the method:
Immunoblot analysis was performed on total cell lysates for ROCK2 and GAPDH expression. In FIG. 8B, TC-71 control and TC-CD99-shRNA #2 cells were treated with either drug at indicated concentrations for 1, 3 and 6 h. Immunoblot analysis was performed on total cell lysates for ROCK2 and GAPDH expression. In FIG. 8C, cell migration experiments were performed using Boyden chamber transwell migration assay with 10% serum serving as the chemoattractant in the lower chamber. […] The number of migrated cells was then quantified by counting the cells in the bottom chamber under the microscope. Asterisks indicate statistically significant differences between treatments (*p<0.05; vs. control using a Student's unpaired t test). […]
In general terms: In western blotting, separated proteins are transferred to a membrane and probed.

In test [3] the test system is TC-71, 6647 and RDES ES cells. Nature of the test: Soft agar colony formation assay, ES cells. It is filed as cell-based, human. The following applies: dose-dependent. The method, then: Anchorage-independent growth was determined in 0.33% agarose (Sea-Plaque Agarose, Lonza) with a 0.5% agarose underlay. […] Colonies were counted after 7-12 days.
In a further test the test system is IOR/MOS OS cells. Nature of the test: Cell viability IC50, IOR/MOS. The test is classed as cell-based. The following applies: Homo sapiens. Here is the method:
as §1, §2

The test system of test [4] is MSK1/2 phosphorylation in MG63.3 and U-2 OS cells. Nature of the test: MSK1/2 phosphorylation by immunoblot, OS cells. It is filed as cell-based, human. The following applies: 1.0 μmol/L, 24 h. Here is the method:
In a parallel set of experiment, cells were also treated with 15 μg/mL of either mouse control IgM or CD99 blocking antibody for the same duration. Total cell lysates were analyzed by immunoblotting for MSK1/2 phosphorylation. […] In a parallel set of experiment, cells were transfected with either siRNA control or siRNA targeting the coding region of CD99 protein. Total cell lysates were analyzed after 48 h by immunoblotting for MSK1/2 phosphorylation after cell transfection. […] In FIG. 23D, SCID/beige mice were implanted with TC-71 xenografts in their tibia. […] Tumor lysates were analyzed by immunoblotting for MSK1/2 phosphorylation.
Quantitative analysis of protein bands was performed using ImageJ 1.48v software. Immunoblotting was performed as described above.

Turning to `Nc1nc(Cl)nc2c1ncn2[C@H]1C[C@H](O)[C@@H](CO)O1` [cladribine], in test [1] (ES cells), the cell cycle effect result was “cell cycle arrest in S phase”. Also, in test [1], the “hypodiploid sub-G1 peak” value is given as “significant increase”. Moreover, the 50% inhibitory concentration (IC50) in the test with SKES-1 ES cells is 430 nM; with IOR/MOS OS cells, > 30000 nM. Moreover, in test [2], the ROCK2 expression result is listed as “notable decrease”. Besides, the “colony formation (anchorage-independent growth)” value in test [3] is listed as “significantly inhibited”.

As for `Nc1nc(Cl)nc2c1ncn2[C@@H]1O[C@H](CO)[C@@H](O)[C@@H]1F` [clofarabine], the “hypodiploid sub-G1 peak” value in test [1] is given as “significant increase”. Also, the concentration for half-maximal inhibition (IC50) with SKES-1 ES cells is 300 nM; in the test on IOR/MOS OS cells, > 10000 nM. The “phosphorylation levels of MSK1/2” value in test [4] is given as “Neither MG63.3 nor U2-OS cells showed a response”. For the same compound, the ROCK2 expression entry in test [2] is given as “notable decrease”. Further, the “colony formation (anchorage-independent growth)” value in test [3] is “significantly inhibited”.

As usually defined, the IC50 is the point on the concentration scale where inhibition reaches its midpoint.
